PubChem BioAssay AID256 (DTP/NCI, 2004)
Values joined by “and” are separate entries in the source; they are usually repeats but may differ in a detail not shown here. Identical values can stand only once. Toxic doses and inconclusive results are not listed.

Test system: CD2F1 mice, L1210 leukemia ip, survival T/C
Experiment: NCI In Vivo Anticancer Drug Screen. Data for tumor model L1210 Leukemia (intraperitoneal) in CD2F1 (CDF1) mice
Conditions: higher = longer survival
Outline: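 Vehicle-treated tumor-bearing mice served as controls (C) for compound-treated mice (T). Reported figure is T divided by C.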

[1] = endpoint: mean survival time, dose: 12.5 mg/kg/injection, schedule: Q01DX009 (ip), vehicle: saline
[2] = endpoint: mean survival time, dose: 100.0 mg/kg/injection, schedule: Q04DX003 (ip), vehicle: saline with Tween-80
[3] = endpoint: mean survival time, dose: 200.0 mg/kg/injection, schedule: Q04DX003 (ip), vehicle: saline with Tween-80
[4] = endpoint: mean survival time, dose: 400.0 mg/kg/injection, schedule: Q04DX003 (ip), vehicle: saline with Tween-80
[5] = endpoint: mean survival time, dose: 100.0 mg/kg/injection, schedule: Q01DX009 (ip), vehicle: saline with Tween-80
[6] = endpoint: mean survival time, dose: 200.0 mg/kg/injection, schedule: Q01DX009 (ip), vehicle: saline with Tween-80

With `CSc1ncnc2c1ncn2C1OC(CO)C(O)C1O` (centres undefined) the T/C (endpoint: mean survival time, dose: 4.0 mg/kg/injection, schedule: Q01DX009 (ip), vehicle: saline) was 118 % of control, the T/C (endpoint: mean survival time, dose: 5.0 mg/kg/injection, schedule: Q01DX005 (ip), vehicle: saline) was 118 % of control and 124 % of control and the T/C (endpoint: mean survival time, dose: 5.0 mg/kg/injection, schedule: Q01DX007 (ip), vehicle: saline) was 110 % of control. For the same molecule, the T/C (endpoint: mean survival time, dose: 5.0 mg/kg/injection, schedule: Q01DX009 (ip), vehicle: saline) was 114 % of control, the T/C (endpoint: mean survival time, dose: 5.0 mg/kg/injection, schedule: Q03DX003 (ip), vehicle: saline) was 115 % of control and the T/C (endpoint: mean survival time, dose: 5.0 mg/kg/injection, schedule: Q04DX003 (ip), vehicle: saline) was 103 % of control. For the same molecule, the T/C (endpoint: mean survival time, dose: 10.0 mg/kg/injection, schedule: Q01DX007 (ip), vehicle: saline) was 116 % of control, the T/C (endpoint: mean survival time, dose: 10.0 mg/kg/injection, schedule: Q01DX009 (ip), vehicle: saline) was 121 % of control and the T/C (endpoint: mean survival time, dose: 10.0 mg/kg/injection, schedule: Q03DX003 (ip), vehicle: saline) was 122 % of control. For the same molecule, the T/C (endpoint: mean survival time, dose: 10.0 mg/kg/injection, schedule: Q04DX003 (ip), vehicle: saline) was 112 % of control, the T/C [1] was 150 % of control and the T/C (endpoint: mean survival time, dose: 20.0 mg/kg/injection, schedule: Q01DX005 (ip), vehicle: saline) was 154 % of control. The T/C (endpoint: mean survival time, dose: 20.0 mg/kg/injection, schedule: Q04DX003 (ip), vehicle: saline) was 114 % of control, the T/C (endpoint: mean survival time, dose: 25.0 mg/kg/injection, schedule: Q01DX001 (ip), vehicle: saline) was 118 % of control and the T/C (endpoint: mean survival time, dose: 32.0 mg/kg/injection, schedule: Q01DX009 (ip), vehicle: saline) was 115 % of control. For the same molecule, the T/C (endpoint: mean survival time, dose: 40.0 mg/kg/injection, schedule: Q01DX005 (ip), vehicle: saline) was 164 % of control and 166 % of control, the T/C (endpoint: mean survival time, dose: 64.0 mg/kg/injection, schedule: Q01DX009 (ip), vehicle: saline) was 80 % of control and the T/C (endpoint: mean survival time, dose: 80.0 mg/kg/injection, schedule: Q01DX005 (ip), vehicle: saline) was 119 % of control. For the same molecule, the T/C (endpoint: median survival time, dose: 18.0 mg/kg/injection, schedule: Q01DX009 (ip), vehicle: saline) was 155 % of control, the T/C (endpoint: median survival time, dose: 27.0 mg/kg/injection, schedule: Q01DX009 (ip), vehicle: saline) was 170 % of control and 191 % of control and the T/C (endpoint: median survival time, dose: 30.0 mg/kg/injection, schedule: Q01DX009 (ip), vehicle: saline) was 158 % of control and 161 % of control. For the same molecule, the T/C (endpoint: median survival time, dose: 35.0 mg/kg/injection, schedule: Q01DX009 (ip), vehicle: saline) was 183 % of control, the T/C (endpoint: median survival time, dose: 45.0 mg/kg/injection, schedule: Q01DX009 (ip), vehicle: saline) was 119 % of control and 108 % of control and the T/C (endpoint: median survival time, dose: 123.0 mg/kg/injection, schedule: Q01DX001 (ip), vehicle: saline) was 157 % of control. The T/C (endpoint: median survival time, dose: 185.0 mg/kg/injection, schedule: Q01DX001 (ip), vehicle: saline with Tween-80) was 160 % of control and the T/C (endpoint: median survival time, dose: 185.0 mg/kg/injection, schedule: Q01DX001 (ip), vehicle: saline) was 151 % of control.

With `CS(=O)(=O)CC#N` the T/C (endpoint: mean survival time, dose: 6.25 mg/kg/injection, schedule: Q04DX002 (ip), vehicle: saline with Tween-80) was 91 % of control and 109 % of control, the T/C (endpoint: mean survival time, dose: 12.5 mg/kg/injection, schedule: Q01DX001 (ip), vehicle: saline with Tween-80) was 93 % of control and the T/C [1] was 92 % of control. The T/C (endpoint: mean survival time, dose: 12.5 mg/kg/injection, schedule: Q04DX002 (ip), vehicle: saline with Tween-80) was 91 % of control and 102 % of control, the T/C (endpoint: mean survival time, dose: 12.5 mg/kg/injection, schedule: Q04DX003 (ip), vehicle: saline with Tween-80) was 97 % of control and the T/C (endpoint: mean survival time, dose: 25.0 mg/kg/injection, schedule: Q01DX001 (ip), vehicle: saline with Tween-80) was 106 % of control. For the same molecule, the T/C (endpoint: mean survival time, dose: 25.0 mg/kg/injection, schedule: Q01DX009 (ip), vehicle: saline) was 92 % of control and 98 % of control, the T/C (endpoint: mean survival time, dose: 25.0 mg/kg/injection, schedule: Q04DX002 (ip), vehicle: saline with Tween-80) was 94 % of control and 101 % of control and the T/C (endpoint: mean survival time, dose: 25.0 mg/kg/injection, schedule: Q04DX002 (ip), vehicle: saline) was 99 % of control and 103 % of control. For the same molecule, the T/C (endpoint: mean survival time, dose: 25.0 mg/kg/injection, schedule: Q04DX003 (ip), vehicle: saline with Tween-80) was 97 % of control, the T/C (endpoint: mean survival time, dose: 50.0 mg/kg/injection, schedule: Q01DX001 (ip), vehicle: saline with Tween-80) was 100 % of control and the T/C (endpoint: mean survival time, dose: 50.0 mg/kg/injection, schedule: Q04DX002 (ip), vehicle: saline) was 100 % of control.

`CN(C)CCSc1nnc(N)s1` was tested, and the T/C (endpoint: mean survival time, dose: 200.0 mg/kg/injection, schedule: Q01DX001 (ip), vehicle: saline) was 100 % of control.

In the case of `CCCC1(CCC)NC(=O)NC1=O`, the T/C (endpoint: mean survival time, dose: 100.0 mg/kg/injection, schedule: Q04DX003 (ip), vehicle: other) was 102 % of control and the T/C (endpoint: mean survival time, dose: 200.0 mg/kg/injection, schedule: Q04DX003 (ip), vehicle: other) was 102 % of control.

For `CCCCNC(=O)CC(C)C(=O)O` (centres undefined), the T/C [2] was 102 % of control, the T/C [3] was 98 % of control and the T/C [4] was 102 % of control.

With `O=C(NO)c1cccnc1` the T/C (endpoint: mean survival time, dose: 270.0 mg/kg/injection, schedule: Q01DX009 (ip), vehicle: other) was 121 % of control, the T/C (endpoint: mean survival time, dose: 400.0 mg/kg/injection, schedule: Q01DX001 (ip), vehicle: other) was 98 % of control and the T/C (endpoint: mean survival time, dose: 600.0 mg/kg/injection, schedule: Q01DX001 (ip), vehicle: other) was 101 % of control. The T/C (endpoint: mean survival time, dose: 800.0 mg/kg/injection, schedule: Q01DX001 (ip), vehicle: other) was 101 % of control and the T/C (endpoint: mean survival time, dose: 800.0 mg/kg/injection, schedule: Q01DX009 (ip), vehicle: other) was 164 % of control.

In the case of `O=c1cc(-c2ccccc2)[nH]c(-c2ccccc2)c1`, the T/C (endpoint: mean survival time, dose: 100.0 mg/kg/injection, schedule: Q01DX001 (ip), vehicle: saline with Tween-80) was 100 % of control, the T/C [5] was 89 % of control and the T/C [2] was 89 % of control. For the same molecule, the T/C (endpoint: mean survival time, dose: 200.0 mg/kg/injection, schedule: Q01DX001 (ip), vehicle: saline with Tween-80) was 88 % of control, the T/C [6] was 88 % of control and the T/C [3] was 93 % of control. For the same molecule, the T/C (endpoint: mean survival time, dose: 400.0 mg/kg/injection, schedule: Q01DX001 (ip), vehicle: saline with Tween-80) was 89 % of control and the T/C [4] was 86 % of control.

With `COc1cccc2c1C(=O)OC2=O` the T/C (endpoint: mean survival time, dose: 12.5 mg/kg/injection, schedule: Q01DX005 (ip), vehicle: Klucel (hydroxypropylcellulose) (HPC)) was 101 % of control, the T/C (endpoint: mean survival time, dose: 25.0 mg/kg/injection, schedule: Q01DX005 (ip), vehicle: Klucel (hydroxypropylcellulose) (HPC)) was 101 % of control and the T/C (endpoint: mean survival time, dose: 50.0 mg/kg/injection, schedule: Q01DX005 (ip), vehicle: Klucel (hydroxypropylcellulose) (HPC)) was 95 % of control. The T/C (endpoint: mean survival time, dose: 100.0 mg/kg/injection, schedule: Q01DX005 (ip), vehicle: Klucel (hydroxypropylcellulose) (HPC)) was 94 % of control and the T/C (endpoint: mean survival time, dose: 200.0 mg/kg/injection, schedule: Q01DX005 (ip), vehicle: Klucel (hydroxypropylcellulose) (HPC)) was 95 % of control.

With `Cc1ccccc1N=C(NO)c1ccccc1` the T/C (endpoint: mean survival time, dose: 50.0 mg/kg/injection, schedule: Q01DX009 (ip), vehicle: saline) was 98 % of control, the T/C (endpoint: mean survival time, dose: 100.0 mg/kg/injection, schedule: Q01DX009 (ip), vehicle: saline) was 98 % of control and the T/C (endpoint: mean survival time, dose: 200.0 mg/kg/injection, schedule: Q01DX009 (ip), vehicle: saline) was 95 % of control.

In the case of `CCc1ccccc1OS(=O)(=O)c1cccc([N+](=O)[O-])c1`, the T/C [5] was 96 % of control, the T/C [2] was 99 % of control and the T/C [6] was 98 % of control. The T/C [3] was 100 % of control, the T/C (endpoint: mean survival time, dose: 400.0 mg/kg/injection, schedule: Q01DX009 (ip), vehicle: saline with Tween-80) was 98 % of control and the T/C [4] was 99 % of control.

With `Cc1ccc(C(=O)c2ccccc2C(=O)O)cc1O` the T/C [2] was 98 % of control, the T/C [3] was 101 % of control and the T/C [4] was 106 % of control.
